Measured values taken from the supplement of paper PMC10307832.

Experiments:
Test in all cases: relative viability (nuclei count vs DMSO), 5 days (fraction); higher = more cells survive
GSK-J4 + OSI-027 = compound: CCOC(=O)CCNc1cc(N2CCc3ccccc3CC2)nc(-c2ccccn2)n1 [GSK-J4] + COc1cccc2cc(-c3nc([C@H]4CC[C@H](C(=O)O)CC4)n4ncnc(N)c34)[nH]c12 [OSI-027] (partner 0.5 µM)
In short: (§1)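 Lung cancer cell lines were seeded in 1536-well plates and dosed by pin tool the next day, with either a single drug or a fixed anchor-drug dose combined with five library-drug doses (not always all listed) spaced in √10 steps. Five days later, one step fixed the cells and stained their nuclei (final 0.05% Triton X-100, 1% formaldehyde, 1 ug/ml Hoechst), and nuclei were counted on 4× images. Relative viability is the nuclei count in treated wells divided by the count in vehicle wells, and each value is the median of duplicate plates.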

GSK-J4 + Linsitinib = compound: CCOC(=O)CCNc1cc(N2CCc3ccccc3CC2)nc(-c2ccccn2)n1 [GSK-J4] + C[C@]1(O)C[C@@H](c2nc(-c3ccc4ccc(-c5ccccc5)nc4c3)c3c(N)nccn32)C1 [Linsitinib] (partner 1 µM)
In short: as §1

GSK-J4 + Phenformin = compound: CCOC(=O)CCNc1cc(N2CCc3ccccc3CC2)nc(-c2ccccn2)n1 [GSK-J4] + N=C(N)NC(=N)NCCc1ccccc1 [Phenformin] (partner 250 µM)
In short: as §1

AZ3146 + Luminespib = compound: CN1CCC(CC1)OC2=CC(=C(C=C2)NC3=NC=C4C(=N3)N(C(=O)N4C)C5CCCC5)OC [AZ3146] + CCNC(=O)c1noc(-c2cc(C(C)C)c(O)cc2O)c1-c1ccc(CN2CCOCC2)cc1 [Luminespib] (partner 0.01 µM)
In short: as §1

| Cell Line | relative viability (GSK-J4 + OSI-027; first compound 0.5 µM) | relative viability (GSK-J4 + OSI-027; first compound 1.581 µM) | relative viability (GSK-J4 + OSI-027; first compound 5 µM) | relative viability (GSK-J4 + OSI-027; first compound 15.81 µM) | relative viability (GSK-J4 + OSI-027; first compound 50 µM) | relative viability (GSK-J4 + Linsitinib; first compound 0.5 µM) | relative viability (GSK-J4 + Linsitinib; first compound 5 µM) | relative viability (GSK-J4 + Linsitinib; first compound 15.81 µM) | relative viability (GSK-J4 + Linsitinib; first compound 50 µM) | relative viability (GSK-J4 + Phenformin; first compound 0.5 µM) | relative viability (GSK-J4 + Phenformin; first compound 1.581 µM) | relative viability (GSK-J4 + Phenformin; first compound 5 µM) | relative viability (GSK-J4 + Phenformin; first compound 15.81 µM) | relative viability (GSK-J4 + Phenformin; first compound 50 µM) | relative viability (AZ3146 + Luminespib; first compound 0.08 µM) | relative viability (AZ3146 + Luminespib; first compound 0.253 µM) | relative viability (AZ3146 + Luminespib; first compound 0.8 µM) | relative viability (AZ3146 + Luminespib; first compound 2.53 µM) | relative viability (AZ3146 + Luminespib; first compound 8 µM) | relative viability (GSK-J4 + Linsitinib; first compound 1.581 µM) |
| --- | --- | --- | --- | --- | --- | --- | --- | --- | --- | --- | --- | --- | --- | --- | --- | --- | --- | --- | --- | --- |
| NCI-H23 | 0.657 | 0.363 | 0.535 | 0.41 | 0.392 | 0.557 | 0.694 | 0.54 | 0.594 | 0.71 | 0.723 | 0.627 | 0.648 | 0.671 | 0.218 | 0.21 | 0.241 | 0.223 | 0.226 |  |
| LC-2-ad | 0.828 | 0.759 | 0.659 | 0.623 | 0.528 | 0.795 | 0.794 | 0.769 | 0.839 | 0.635 | 0.499 | 0.495 | 0.568 | 0.432 | 0.877 | 1.16 | 1.08 | 1.09 | 1.07 | 0.831 |
| COR-L 105 | 0.631 | 0.64 | 0.546 | 0.585 | 0.692 | 0.985 | 0.91 | 1.06 | 0.99 | 0.408 | 0.395 | 0.381 | 0.475 | 0.578 | 0.776 | 0.8 | 0.815 | 0.824 | 0.678 | 0.572 |
| NCI-H647 | 0.674 | 0.513 | 0.391 | 0.594 | 0.774 | 0.964 | 1.03 | 1.2 | 0.79 | 0.618 | 0.398 | 0.415 | 0.498 | 0.532 | 0.186 | 0.178 | 0.244 | 0.149 | 0.269 | 0.993 |
| NCI-H1915 | 0.598 | 0.578 |  | 0.595 | 0.657 | 1.06 | 1.09 | 1.07 | 1.11 | 0.36 | 0.327 |  | 0.369 | 0.388 | 0.717 | 0.888 | 0.913 | 0.875 | 0.919 | 0.722 |
| NCI-H2087 | 0.552 |  | 0.851 | 0.542 | 0.421 | 0.791 |  | 0.864 | 0.641 | 0.466 |  | 0.541 | 0.452 | 0.456 | 0.232 | 0.182 | 0.217 | 0.209 | 0.199 | 0.94 |
| NCI-H2085 | 0.796 | 0.66 | 0.569 | 0.459 | 0.515 | 0.801 | 0.926 | 0.874 | 0.771 | 0.724 | 0.674 | 0.671 | 0.508 | 0.582 | 0.417 | 0.416 | 0.394 | 0.427 | 0.608 | 0.812 |
